The structures appear in SMILES notation. Read-outs that look alike come from different tables or passages of the source.

For data set [1] the following is noted: 13-membered ring.
Data set [2] concerns the target T1, a4b7 integrin interaction with MadCAM-1 (Homo sapiens, UniProt P13612+P26010).
T1 construct: capture of a4b7 integrin expressing cells, RPMI8866; endogenous in cells; host or cells: RPMI8866
T1 sequence (P13612 34-1032): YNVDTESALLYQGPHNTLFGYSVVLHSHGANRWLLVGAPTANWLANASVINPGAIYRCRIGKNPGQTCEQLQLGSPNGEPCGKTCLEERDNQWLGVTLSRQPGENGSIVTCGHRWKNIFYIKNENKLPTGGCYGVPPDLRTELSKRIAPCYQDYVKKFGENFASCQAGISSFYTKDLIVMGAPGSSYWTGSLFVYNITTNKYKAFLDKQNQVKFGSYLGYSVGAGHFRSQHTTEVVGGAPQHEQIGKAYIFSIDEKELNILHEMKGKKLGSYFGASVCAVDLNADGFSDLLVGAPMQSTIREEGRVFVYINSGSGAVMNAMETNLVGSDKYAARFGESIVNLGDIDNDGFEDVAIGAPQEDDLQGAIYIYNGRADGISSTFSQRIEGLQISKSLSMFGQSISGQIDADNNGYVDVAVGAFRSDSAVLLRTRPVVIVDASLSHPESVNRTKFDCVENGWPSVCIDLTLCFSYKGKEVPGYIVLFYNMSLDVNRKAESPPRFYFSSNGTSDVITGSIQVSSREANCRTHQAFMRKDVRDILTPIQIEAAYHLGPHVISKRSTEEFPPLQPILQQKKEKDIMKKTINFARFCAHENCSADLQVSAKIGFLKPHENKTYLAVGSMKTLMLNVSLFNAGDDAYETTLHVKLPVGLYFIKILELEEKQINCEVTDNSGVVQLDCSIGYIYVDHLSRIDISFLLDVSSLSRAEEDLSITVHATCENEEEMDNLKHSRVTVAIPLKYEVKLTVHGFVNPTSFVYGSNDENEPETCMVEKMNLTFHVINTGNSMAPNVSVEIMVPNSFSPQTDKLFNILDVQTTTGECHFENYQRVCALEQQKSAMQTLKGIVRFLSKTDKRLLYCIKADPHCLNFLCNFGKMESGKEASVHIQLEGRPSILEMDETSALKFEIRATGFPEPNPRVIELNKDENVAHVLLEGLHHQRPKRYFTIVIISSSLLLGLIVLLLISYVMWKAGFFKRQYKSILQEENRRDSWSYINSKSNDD
T1 sequence (P26010 20-798): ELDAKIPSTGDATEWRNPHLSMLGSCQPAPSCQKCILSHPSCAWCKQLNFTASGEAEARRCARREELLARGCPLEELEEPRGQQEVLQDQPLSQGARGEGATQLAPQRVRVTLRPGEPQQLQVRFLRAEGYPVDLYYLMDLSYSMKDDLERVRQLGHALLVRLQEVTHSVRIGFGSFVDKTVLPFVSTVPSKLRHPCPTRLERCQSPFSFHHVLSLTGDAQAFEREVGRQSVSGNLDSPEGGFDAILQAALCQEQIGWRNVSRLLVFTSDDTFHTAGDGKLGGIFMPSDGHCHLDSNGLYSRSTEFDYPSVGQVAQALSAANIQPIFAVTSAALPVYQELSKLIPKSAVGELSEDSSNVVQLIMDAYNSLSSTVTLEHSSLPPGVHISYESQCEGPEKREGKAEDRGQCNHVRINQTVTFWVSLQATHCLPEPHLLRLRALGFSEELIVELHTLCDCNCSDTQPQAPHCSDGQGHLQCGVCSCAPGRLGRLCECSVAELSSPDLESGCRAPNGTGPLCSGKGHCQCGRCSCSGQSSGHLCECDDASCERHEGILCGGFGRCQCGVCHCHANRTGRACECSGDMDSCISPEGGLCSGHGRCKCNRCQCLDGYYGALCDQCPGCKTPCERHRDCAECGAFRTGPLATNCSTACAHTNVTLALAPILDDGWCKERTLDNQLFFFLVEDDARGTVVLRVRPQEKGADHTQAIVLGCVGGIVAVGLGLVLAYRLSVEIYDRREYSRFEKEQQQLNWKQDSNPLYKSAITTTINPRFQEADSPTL
Nature of the data set: a4b7 Cell Capture Assay (RPMI8866 cells on MAdCAM-1 Fc coated plates). The data set is classed as cell-based. To be noted: 50% human serum, 1 mM MgCl2, 1 hour incubation, CellTiter-Glo luminescence, read-out: a4B7 cell capture assay RMPI8866-MadCAM EC50. In short, it runs like this:
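RPMI8866 cells (1.0×10^6 cells/mL) in 1 mM MgCl2, 25 mM HEPES, 50% human serum were added to plates coated with human MAdCAM-1–IgG1 Fc (1.0 μg/mL) and exposed to compound (9-point, 0.08–1000 nM, 0.1% DMSO) for 1 h at 37 °C. Bound cells were read by CellTiter-Glo luminescence. IC50 came from 4-parameter fit of normalized % inhibition.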

Regarding `CCOC(=O)C[C@@H]1NC(=O)C(=O)c2cccc(c2)Cc2cccc(C)c2-c2cc(C)c(F)c1c2`, the ring closure, isolated yield in data set [1] (from CCOC(=O)C[C@H](N)c1cc(-c2c(C)cccc2Cc2cccc(C(=O)C(=O)O)c2)cc(C)c1F, amide bond, TCFH/NMI, MeCN, 139.3 mM, 25.0 °C, 3.0 h) stood at 32.5%.

Turning to `CCOC(=O)C[C@@H]1NC(=O)C(n2c(=O)c3ccncc3n(C)c2=O)c2cc(ccc2F)Oc2cccc(C)c2-c2cc(C)c(F)c1c2` (stereo partly shown), in data set [1] (from CCOC(=O)C[C@H](NC(=O)C(c1cc(Br)ccc1F)n1c(=O)c2ccncc2n(C)c1=O)c1cc(-c2c(C)cccc2O)cc(C)c1F, ether bond, CuI/K2CO3/(1R,2R)-N1,N2-dimethylcyclohexane-1,2-diamine, 1,4-dioxane, 50.0 mM, 100.0 °C, 2.0 h), the ring closure, isolated yield came to 82.6%.

As for `CCOC(=O)C[C@@H]1NC(=O)C(n2cc(CCN3CC(F)(F)C3)c(C(F)(F)F)cc2=O)c2cc(ccc2F)Oc2cccc(C)c2-c2cc(C)c(F)c1c2` (stereo partly shown), the ring closure, isolated yield in data set [1] (from CCOC(=O)C[C@H](NC(=O)C(c1cc(Br)ccc1F)n1cc(CCN2CC(F)(F)C2)c(C(F)(F)F)cc1=O)c1cc(-c2c(C)cccc2O)cc(C)c1F, ether bond, CuI/(1R,2R)-N1,N2-dimethylcyclohexane-1,2-diamine/K2CO3, 1,4-dioxane, 26.0 mM, 100.0 °C, 16.0 h) was 50.3%.

Turning to `CCOC(=O)C[C@@H]1NC(=O)C(n2cc(CCN3CC(F)C3)c(C(F)(F)F)cc2=O)c2cc(cc(C(F)(F)F)c2)Oc2cccc(C)c2-c2cc1c(F)c(C(F)(F)F)c2` (stereo partly shown), in data set [1] (from CCOC(=O)C[C@H](NC(=O)C(c1cc(Br)cc(C(F)(F)F)c1)n1cc(CCN2CC(F)C2)c(C(F)(F)F)cc1=O)c1cc(-c2c(C)cccc2O)cc(C(F)(F)F)c1F, ether bond, CuI/(1R,2R)-N1,N2-dimethylcyclohexane-1,2-diamine/K2CO3, dioxane, 15.0 mM, 100.0 °C, 2.0 h), the ring closure, isolated yield came out at 64.3%.

As to `CCOC(=O)C[C@@H]1NC(=O)C(n2cc(CCN3CC(F)C3)c(C(F)(F)F)cc2=O)c2cc(ccc2C)Oc2cccc(C)c2-c2cc(C)c(F)c1c2` (stereo partly shown), the ring closure, isolated yield in data set [1] (from CCOC(=O)C[C@H](NC(=O)C(c1cc(Br)ccc1C)n1cc(CCN2CC(F)C2)c(C(F)(F)F)cc1=O)c1cc(-c2c(C)cccc2O)cc(C)c1F, ether bond, CuI/K2CO3/(1R,2R)-N1,N2-dimethylcyclohexane-1,2-diamine, 1,4-dioxane, 100.0 °C) is 88.9%.

Consider `CCOC(=O)C[C@@H]1NC(=O)C(n2cc(CCN3CC(F)C3)c(C(F)(F)F)cc2=O)c2cc(ccc2F)Oc2cc(C3COC3)cc(C)c2-c2cc(C)c(F)c1c2` (stereo partly shown), for which, in data set [1] (from CCOC(=O)C[C@H](NC(=O)C(c1cc(Br)ccc1F)n1cc(CCN2CC(F)C2)c(C(F)(F)F)cc1=O)c1cc(-c2c(C)cc(C3COC3)cc2O)cc(C)c1F, ether bond, CuI/(1R,2R)-N1,N2-dimethylcyclohexane-1,2-diamine/K2CO3, 1,4-dioxane, 25.0 mM, 100.0 °C, 1.0 h), the ring closure, isolated yield came to 31.8%.

With `CCOC(=O)C[C@@H]1NC(=O)C(n2cc(CCN3CC(F)C3)c(C(F)(F)F)cc2=O)c2cc(ccc2F)Oc2cccc(C)c2-c2cc(C)c(F)c1c2F` (stereo partly shown), the ring closure, isolated yield in data set [1] (from CCOC(=O)C[C@H](NC(=O)C(c1cc(Br)ccc1F)n1cc(CCN2CC(F)C2)c(C(F)(F)F)cc1=O)c1c(F)c(C)cc(-c2c(C)cccc2O)c1F, ether bond, CuI/K2CO3/(1R,2R)-N1,N2-dimethylcyclohexane-1,2-diamine, 1,4-dioxane, 48.0 mM, 100.0 °C) amounted to 72%.

`CCOC(=O)C[C@@H]1NC(=O)C(n2cc(CCN3CC(F)C3)c(C(F)(F)F)cc2=O)c2cc(ccc2F)Oc2nn(C)cc2-c2cc(C)c(F)c1c2` (stereo partly shown) showed a ring closure, isolated yield in data set [1] (from CCOC(=O)C[C@H](N)c1cc(-c2cn(C)nc2Oc2ccc(F)c(C(C(=O)O)n3cc(CCN4CC(F)C4)c(C(F)(F)F)cc3=O)c2)cc(C)c1F, amide bond, EDCI/HOBt/DIEA, MeCN, 32.6 mM, 60.0 °C, 6.0 h) of 29.9%.

In the case of `CCOC(=O)C[C@@H]1NC(=O)C(n2cc(CCN3CC(F)C3)c(C(F)(F)F)cc2=O)c2cc(ccc2F)Oc2nn(CC3CC3)cc2-c2cc(C)c(F)c1c2` (stereo partly shown), in data set [1] (from CCOC(=O)C[C@H](N)c1cc(-c2cn(CC3CC3)nc2Oc2ccc(F)c(C(C(=O)O)n3cc(CCN4CC(F)C4)c(C(F)(F)F)cc3=O)c2)cc(C)c1F, amide bond, EDCI/HOBt/DIEA, MeCN, 45.0 mM, 60.0 °C, 2.0 h), the ring closure, isolated yield was determined as 14.6%.

`CCOC(=O)C[C@@H]1NC(=O)C(n2cc3ccccc3cc2=O)c2cc(ccc2F)Oc2cccc(C)c2-c2cc(C)c(F)c1c2` (stereo partly shown) returned a ring closure, isolated yield in data set [1] (from CCOC(=O)C[C@H](NC(=O)C(c1cc(Br)ccc1F)n1cc2ccccc2cc1=O)c1cc(-c2c(C)cccc2O)cc(C)c1F, ether bond, CuI/(1R,2R)-N,N'-dimethylcyclohexane-1,2-diamine/K2CO3, dioxane, 58.0 mM, 100.0 °C, 2.0 h) of 33.9%.

In general, EC50 refers to the concentration giving half of the maximal effect. For `Cc1cc2c(F)c(c1F)[C@H](CC(=O)O)NC(=O)[C@@H](n1cc(CCN3CC(F)C3)c(C(F)(F)F)cc1=O)c1cc(ccc1F)Oc1cccc(C)c1-2` (single isomer, unassigned) [Example 77], the EC50 in data set [2] is 0.015 µM.

Take `Cc1cccc2c1-c1cc(C3CC3)c(F)c(c1)[C@H](CC(=O)O)NC(=O)[C@@H](n1ccc(C(F)(F)F)cc1=O)c1cc(ccc1F)CO2` (single isomer, unassigned) [Example 78]: in data set [2], the EC50 came to 0.36 µM.

Turning to `COc1cc(C)c2c(c1)Oc1ccc(F)c(c1)[C@H](n1ccc(C(F)(F)F)cc1=O)C(=O)N[C@@H](CC(=O)O)c1cc-2cc(C)c1F` (single isomer, unassigned) [Example 80], in data set [2], the EC50 was found to be 0.058 µM.

For `Cc1cccc2c1-c1ccc(F)c(c1)[C@H](CC(=O)O)NC(=O)[C@@H](n1cc(CCN3CC(F)C3)c(C(F)(F)F)cc1=O)c1cc(ccc1F)O2` [Example 32, 2-((5S,8S)-1^4,4^4-difluoro-5-(5-(2-(3-fluoroazetidin-1-yl)ethyl)-2-oxo-4-(trifluoromethyl)pyridin-1(2H)-yl)-2^6-methyl-6-oxo-3-oxa-7-aza-1,4(1,3),2(1,2)-tribenzenacyclooctaphane-8-yl)acetic acid], the EC50 in data set [2] was found to be 0.00095 µM.

For `Cc1cc2cc(c1F)[C@H](CC(=O)O)NC(=O)[C@@H](n1cc(CCN3CC(F)C3)c(C(F)(F)F)cc1=O)c1cc(cc(Cl)c1F)Oc1cccc(C)c1-2` [Example 38, [(14S,17S)-11-chloro-12,19-difluoro-14-{5-[2-(3-fluoroazetidin-1-yl)ethyl]-2-oxo-4-(trifluoromethyl)pyridin-1-yl}-3,20-dimethyl-15-oxo-8-oxa-16-azatetracyclo[16.3.1.1^{9,13}.0^{2,7}]tricosa-1(22),2(7),3,5,9,11,13(23),18,20-nonaen-17-yl]acetic acid], in data set [2], the 50% effective concentration (EC50) is 0.0013 µM.

Take `Cc1cccc2c1-c1cc(c(F)c(C(F)(F)F)c1)[C@H](CC(=O)O)NC(=O)[C@@H](n1cc(Cl)c(C(F)(F)F)cc1=O)c1cccc(c1)O2` [Example 39, [(17S)-14-[5-chloro-2-oxo-4-(trifluoromethyl)pyridin-1-yl]-19-fluoro-3-methyl-15-oxo-20-(trifluoromethyl)-8-oxa-16-azatetracyclo[16.3.1.1^{9,13}.0^{2,7}]tricosa-1(22),2(7),3,5,9,11,13(23),18,20-nonaen-17-yl]acetic acid]: the EC50 in data set [2] was > 0.1 µM.
